Consider 3 compounds from US6426340B1, “Prevention and treatment of colorectal cancer by 6-fluoroursodeoxycholic acid (6-FUDCA)” (Novartis AG, priority 1996, dated 2002).

Marks after values point to notes of the source that are not given here.

Series [1] can be described thus: Physicochemical properties of 6-FUDCA compared with UDCA. From the text:
Additionally, the retention time on C-18 reverse phase HPLC was different for the two fluorinated diastereoisomers. […] The invention relates to the single isomers or diastereoisomers of 6-FUDCA and mixtures thereof.

Series [2] deals with intestinal bacterial flora. Conditions: 7-dehydroxylation by intestinal bacterial flora; cited from earlier work.
A short description of series [3]: Analysis of fecal bile acid levels in the diet-supplemented rats. The format is in vivo. The procedure: (§1) Protocol of Study. All rats were fed their assigned diets for 2 weeks, following which 10 rats in each group (except control group) were given s.c. injections of AOM (Sigma Chemical Co.; 15 mg/kg body weight) once a week for 2 weeks, while 5 rats received AOM vehicle. Control rats received AOM vehicle only. A week later (at week 3) rats received a second dose of carcinogen (AOM 15 mg/kg) while control rats received AOM vehicle. Each group was then maintained on their respective experimental diet for an additional 3 weeks. At this time, day 42, the rats were sacrificed; their colons were removed, opened, washed with normal saline, and examined macroscopically and microscopically for the presence of tumors. Aberrant crypts were quantified by direct microscopic counting of methylene blue stained whole colon. Stool specimens were removed from the colon at the time of termination, snap frozen, and maintained frozen for subsequent analysis of fecal bile acids.
Therefore, 6-FUDCA enriches rat bile with therapeutic bile acid to a greater extent then can UDCA. Furthermore, 6-FUDCA reduces the formation of bile acids which are potentially toxic to the colonic mucosa.

Series [4] relates to aberrant crypt foci (ACF) in AOM rat model. Put plainly: Development of ACF in AOM rat model, 5 weeks study. Conditions: diet with UDCA 0.4%, 6-FUDCA 0.4% or piroxicam 75 ppm, means ± Std. Dev., N=10. The format is in vivo, Male albino Fischer-344 rats.
Description: as §1, with “Animals. Male albino Fischer-344 rats, initially weighing approximately 90-130 g, were used in these experiments. All diets were obtained from Dyets, Inc. (Bethlehem, Pa.). On arrival, the animals were quarantined for 1 week and then divided into the following experimental groups: Group 1—Standard AIN-76 diet only with no added agents (control group). Group 2—AIN-76 diet plus UDCA 0.4%. Group 3—AIN-76 diet plus 6-FUDCA 0.4%. Group 4—AIN-76 diet plus piroxicam 75 ppm (included for a known positive drug control). Protocol” for “Protocol”, “acids. Statistical Methods. The data were analyzed using the Aspin-Welch t-test, two sided. A value of P<0.05 was considered significant.” for “acids.”

Series [5] shares this test system. Put plainly: Development of ACF in AOM rat model, 12 weeks study. Conditions: for Multiplicity of ACF / Nr of ACF / Total AC count: AOM rat model, 12 weeks study, diet supplementation, means ± Std. Dev., N=12. The format is in vivo, Male albino Fischer-344 rats. The procedure:
Animals. Male albino Fischer-344 rats, initially weighing approximately 90-130 g, were used in these experiments. All diets were obtained from Dyets, Inc. (Bethlehem, Pa.). On arrival, the animals were quarantined for 1 week and then divided into the following experimental groups: Protocol of Study. […] Control rats received AOM vehicle only. A week later (at week 3) rats received a second dose of carcinogen (AOM 15 mg/kg) while control rats received AOM vehicle. […] Aberrant crypts were quantified by direct microscopic counting of methylene blue stained whole colon. Stool specimens were removed from the colon at the time of termination, snap frozen, and maintained frozen for subsequent analysis of fecal bile acids. Statistical Methods. The data were analyzed using the Aspin-Welch t-test, two sided. A value of P<0.05 was considered significant. The protocol for this Example was the same as that for Example I except that 12 rats were included in each AOM-treated group and 6 rats in each control group. Carcinogen was administered on Days 14 and 21. The rats were then continued on the diets containing the experimental drugs for an additional 10 weeks. The following tables set forth the data obtained in the study.

Take `C[C@H](CCC(=O)O)[C@H]1CC[C@H]2[C@@H]3[C@@H](O)[C@H](F)[C@@H]4C[C@H](O)CC[C@]4(C)[C@H]3CC[C@]12C` [6-FUDCA, 3α, 7βdihydroxy-6α-fluoro-5β-cholanoic acid]: the “Hydrophilicity (C-18 reverse phase HPLC)” value in series [1] (6-α-epimer, with respect to UDCA) is “increased hydrophilicity with respect to UDCA”. In addition, in series [1] (compared with UDCA), the Critical micellar concentration result is reported as “slightly lower”, the “Critical micellar pH” value was “lower than that of UDCA” and the Water solubility result is “higher than that of UDCA”. For the same compound, the “Resistance to bacterial dehydroxylation” value in series [2] is given as “extremely resistant to bacterial dehydroxylation”. Also, the “DC and hyoDC in the feces” value in series [3] (6-FUDCA rats compared with UDCA rats) is “less DC and hyoDC are seen in the feces of 6-FUDCA rats than in UDCA rats”. Besides, the “Metabolism by bacteria in the gut” value in series [3] (rat, fecal bile acid analysis) is given as “not metabolized by bacteria in the gut”. In series [4], the “Multiplicity of ACF” value is listed as 1.9 ± 0.1^b), the “Nr of ACF” value came to 84.4 ± 16.3 and the “Total AC count” value is listed as 160.7 ± 34.6^b). For the same compound, in series [5], the “Multiplicity of ACF” value was 2.7 ± 0.3^b), the “Nr of ACF” value was 130.1 ± 35.5^b) and the “Total AC count” value is on record as 350.6 ± 87.3^b). Besides, in series [5] (rats treated with 6-FUDCA, AOM model), the “Aberrant crypts per aberrant crypt focus (FIG. 3)” value is on record as “aberrant crypt foci with fewer aberrant crypts”.
With `CN1C(C(=O)Nc2ccccn2)=C(O)c2ccccc2S1(=O)=O` [PIROXICAM, piroxicam], in series [4], the “Multiplicity of ACF” value is reported as 3.0 ± 0.2, the “Nr of ACF” value is listed as 62.9 ± 9.4^b) and the “Total AC count” value is recorded as 190.1 ± 30.7^b). Moreover, in series [5], the “Multiplicity of ACF” value was determined as 3.4 ± 0.3, the “Nr of ACF” value is recorded as 156.3 ± 34.0^b) and the “Total AC count” value is listed as 625.3 ± 136.1^b).
Regarding `C[C@H](CCC(=O)O)[C@H]1CC[C@H]2[C@@H]3[C@@H](O)C[C@@H]4C[C@H](O)CC[C@]4(C)[C@H]3CC[C@]12C` [UDCA, ursodeoxycholic acid], in series [4], the “Multiplicity of ACF” value was 2.0 ± 0.2^b), the “Nr of ACF” value is listed as 108.1 ± 34.7 and the “Total AC count” value is given as 218.3 ± 73.3^b). In series [5], the “Multiplicity of ACF” value is reported as 2.8 ± 0.2^b), the “Nr of ACF” value is on record as 161.2 ± 37.8^b) and the “Total AC count” value is listed as 445.5 ± 87.4^b).
